The source of these data is patent publication US20150118231A1, “APOE4 ANTIBODIES FOR TREATMENT OF NEURODEGENERATIVE CONDITIONS” (RAMOT AT TEL-AVIV UNIVERSITY LTD., priority 2012, published 2015).

Structures are written as SMILES.

For assay [1], the system named is apoE3 and apoE4 mice. Kind of assay: Bexarotene by gavage: Morris swim test. It is filed as in vivo. The conditions noted are these: 100 mg per kg per day by gavage. The text has this: Next, the mice were further investigated following removal of the platform from the water arena.
Assay [2] concerns apoE3 and apoE4 mice. Put plainly: Bexarotene by gavage: fear conditioning test. Format: in vivo. The conditions noted are these: 100 mg per kg per day by gavage; mild electric shock.
The subject of a further assay is mouse model of AD. The conditions noted are these: oral administration; cited from earlier work.
The subject of assay [3] is apoE3 and apoE4 mice. Kind of assay: Bexarotene by gavage: object recognition test. The conditions noted are these: 100 mg per kg per day by gavage; apoE4 mice prefer the novel object, similarly to apoE3 mice.

In the case of `C=C(c1ccc(C(=O)O)cc1)c1cc2c(cc1C)C(C)(C)CCC2(C)C` [Bexarotene], the “Morris swim test, time to reach the platform, apoE4 mice” value with apoE3 and apoE4 mice [1] (days 1-4, rendered similar to apoE3 mice) is given as “improves”. Further, in the assay on apoE3 and apoE4 mice [1] (platform removed), the “Morris swim test, time searching for the missing platform: difference between apoE3 and apoE4 mice” value is given as “abolished”. For the same molecule, the “fear conditioning, freezing time: difference between apoE3 and apoE4 mice” value in the assay with apoE3 and apoE4 mice [2] is reported as “abolished”. In the assay on mouse model of AD, the apoE synthesis result is listed as “enhanced”, the “clearance of soluble Aβ” value is on record as “within hours”, the cognitive deficits entry is “rapid reversal” and the neural circuit function entry is “improved”. The “time to reduced Aβ plaque area” value in the assay on mouse model of AD is no more than 72 h. The “object recognition impairment in apoE4 mice (time spent near the novel object)” value in the assay with apoE3 and apoE4 mice [3] is given as “reversed”.
